Experimental findings from ChEMBL document CHEMBL4130590, “Mtb PKNA/PKNB Dual Inhibition Provides Selectivity Advantages for Inhibitor Design To Minimize Host Kinase Interactions” (ACS Med Chem Lett, 2017) are described below.

In brackets after ≈: the same amount, converted by molar mass.

The target in experiment [1] is T1, Serine/threonine-protein kinase PknB (Mycobacterium tuberculosis, UniProt P9WI81).
T1 sequence (P9WI81 whole entry): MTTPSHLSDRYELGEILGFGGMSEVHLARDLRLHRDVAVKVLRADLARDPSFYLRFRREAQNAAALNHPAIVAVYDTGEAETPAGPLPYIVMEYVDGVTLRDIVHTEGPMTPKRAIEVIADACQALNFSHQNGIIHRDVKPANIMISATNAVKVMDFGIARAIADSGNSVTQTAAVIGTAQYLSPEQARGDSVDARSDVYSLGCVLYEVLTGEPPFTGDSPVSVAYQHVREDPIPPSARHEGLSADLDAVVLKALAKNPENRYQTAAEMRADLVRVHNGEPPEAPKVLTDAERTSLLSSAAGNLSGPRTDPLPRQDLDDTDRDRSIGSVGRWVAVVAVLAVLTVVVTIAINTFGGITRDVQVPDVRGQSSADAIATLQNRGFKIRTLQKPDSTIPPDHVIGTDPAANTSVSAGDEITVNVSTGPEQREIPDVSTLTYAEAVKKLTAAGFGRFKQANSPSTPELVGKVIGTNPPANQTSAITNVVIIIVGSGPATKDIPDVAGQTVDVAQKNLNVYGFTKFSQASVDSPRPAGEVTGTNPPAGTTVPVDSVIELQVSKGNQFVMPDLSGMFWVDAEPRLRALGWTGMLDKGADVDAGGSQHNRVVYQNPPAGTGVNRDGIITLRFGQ
Briefly: Inhibition of Mycobacterium tuberculosis PknB (M1 to G279 residues) expressed in Escherichia coli BL21 (DE3) cells using [T-33P]ATP as substrate after 50 mins in presence of GarA by liquid scintillation method.

In experiment [2] the target is T2, Serine/threonine-protein kinase PknA (Mycobacterium tuberculosis (strain ATCC 25618 / H37Rv), UniProt P9WI83).
T2 sequence (P9WI83 whole entry): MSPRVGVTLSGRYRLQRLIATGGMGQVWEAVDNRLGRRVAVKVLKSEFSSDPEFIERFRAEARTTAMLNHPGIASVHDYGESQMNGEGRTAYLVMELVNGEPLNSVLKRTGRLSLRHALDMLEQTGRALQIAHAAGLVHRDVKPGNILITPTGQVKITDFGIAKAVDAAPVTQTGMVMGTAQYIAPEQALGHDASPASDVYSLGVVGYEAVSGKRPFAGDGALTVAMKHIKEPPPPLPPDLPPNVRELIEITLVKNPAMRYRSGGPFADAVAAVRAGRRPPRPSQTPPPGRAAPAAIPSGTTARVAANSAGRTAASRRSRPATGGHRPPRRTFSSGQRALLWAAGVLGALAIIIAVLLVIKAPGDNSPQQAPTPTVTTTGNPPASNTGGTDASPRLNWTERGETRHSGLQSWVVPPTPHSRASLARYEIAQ
Kind of experiment: Inhibition of Mycobacterium tuberculosis PknA (M1 to A296 residues) expressed in Escherichia coli BL21 (DE3) pLysS cells using [T-33P]ATP as substrate after 120 mins in presence of GarA by liquid scintillation method.

Experiment [3] concerns Mycobacterium tuberculosis. Briefly: Antibacterial activity against Mycobacterium tuberculosis H37Ra after […] by resazurin reduction assay. The format is functional.
Experiment [4] is described as follows: Selectivity ratio of Ki for recombinant CDK2/cyclin A (unknown origin) to Ki for Mycobacterium tuberculosis PknB (M1 to G279 residues).
The target of the next experiment is CDK2/Cyclin A2 (Homo sapiens, UniProt P24941). Kind of experiment: Inhibition of recombinant CDK2/cyclin A (unknown origin) using MAHHRSPRKRAKKK as substrate by pyruvate kinase-lactate dehydrogenase coupled assay. The format is protein-complex assay.
Experiment [5] concerns the target Proto-oncogene tyrosine-protein kinase Src (Homo sapiens, UniProt P12931). Kind of experiment: Inhibition of recombinant SRC (unknown origin) using polyE4Y as substrate by pyruvate kinase-lactate dehydrogenase coupled assay.
Experiment [6] deals with Glycogen synthase kinase-3 beta (Homo sapiens, UniProt P49841). Briefly: Inhibition of recombinant GSK3beta (unknown origin) using HSSPHQ(Sp)EDEEE as substrate by pyruvate kinase-lactate dehydrogenase coupled assay.
Glycogen synthase kinase-3 beta, sequence (P49841 whole entry): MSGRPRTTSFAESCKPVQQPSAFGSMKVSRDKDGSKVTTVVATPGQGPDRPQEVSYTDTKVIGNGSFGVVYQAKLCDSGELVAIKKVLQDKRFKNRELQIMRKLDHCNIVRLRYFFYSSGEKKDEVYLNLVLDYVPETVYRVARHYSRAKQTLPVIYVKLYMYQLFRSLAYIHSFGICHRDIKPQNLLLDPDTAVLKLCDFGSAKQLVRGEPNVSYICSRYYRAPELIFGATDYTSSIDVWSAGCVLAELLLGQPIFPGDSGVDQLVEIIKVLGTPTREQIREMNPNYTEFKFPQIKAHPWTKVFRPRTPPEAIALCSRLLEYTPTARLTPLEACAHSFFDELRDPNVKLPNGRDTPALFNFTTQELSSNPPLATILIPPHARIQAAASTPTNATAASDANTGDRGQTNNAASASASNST

Proto-oncogene tyrosine-protein kinase Src, sequence (P12931 2-536 limits assumed): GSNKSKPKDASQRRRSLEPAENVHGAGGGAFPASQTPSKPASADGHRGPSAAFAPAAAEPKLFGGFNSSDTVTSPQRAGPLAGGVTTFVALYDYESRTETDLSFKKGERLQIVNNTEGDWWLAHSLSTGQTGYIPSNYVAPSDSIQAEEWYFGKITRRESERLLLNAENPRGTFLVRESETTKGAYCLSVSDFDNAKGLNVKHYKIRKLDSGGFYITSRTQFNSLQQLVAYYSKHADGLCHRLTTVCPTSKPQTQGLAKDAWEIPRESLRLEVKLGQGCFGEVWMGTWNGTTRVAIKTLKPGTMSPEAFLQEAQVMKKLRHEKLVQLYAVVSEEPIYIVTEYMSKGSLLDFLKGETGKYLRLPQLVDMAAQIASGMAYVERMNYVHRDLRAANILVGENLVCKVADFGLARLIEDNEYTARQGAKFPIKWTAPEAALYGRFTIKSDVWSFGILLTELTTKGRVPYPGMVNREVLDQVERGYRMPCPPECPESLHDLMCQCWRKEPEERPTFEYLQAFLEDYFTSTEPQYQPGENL

For orientation: Ki means a measure of affinity in units of concentration, obtained from inhibition or displacement. In the case of `CN1CCN(c2nc(Nc3cc(C4CC4)[nH]n3)c3cc(Cl)ccc3n2)CCC1=O`, the Ki in experiment [1] stood at 0.31 µM.

For the compound `NC(=O)c1cccc(-c2nc(Nc3cc(C4CC4)[nH]n3)c3cc(Cl)ccc3n2)c1`, the Ki is 0.015 µM in experiment [1] and over 4 µM in experiment [2].

By MIC90 is commonly meant an inhibitory concentration at the 90% level, which refers to growth in some studies and to a panel of isolates in others. Lower therefore signals greater potency. In the case of `Cc1cnc(-c2ccc(S(N)(=O)=O)s2)nc1Nc1cc(C2CC2)[nH]n1`, the results for the Ki in experiment [1] and in experiment [2] were 0.004 µM and 0.018 µM, respectively. The MIC90 in experiment [3] was 4.7 µM (≈ 1.77 µg/mL).

As to `Cc1cnc(-c2ccc(S(N)(=O)=O)s2)nc1Nc1cc(C2CC2)n(C)n1`, the Ki in experiment [1] and in experiment [2] was over 4 µM throughout. Further, the MIC90 in experiment [3] was over 100 µM.

Take `NC(=O)c1ccc(-c2nc(Nc3cc(C4CC4)[nH]n3)c3cc(Cl)ccc3n2)cc1`: the Ki is 0.029 µM in experiment [1] and over 4 µM in experiment [2].

Consider `NS(=O)(=O)c1ccc(-c2nc(Nc3cc(C4CC4)[nH]n3)c3cc(Cl)ccc3n2)s1`, for which the Ki is under 0.001 µM in experiment [1] and under 0.008 µM in experiment [2].

On to `NS(=O)(=O)c1ccc(-c2nccc(Nc3cc(C4CC4)[nH]n3)n2)s1`, for which, in experiment [4], the Ratio Ki turned out to be 2. Also, the Ki at CDK2/Cyclin A2 is 0.007 µM; in experiment [1] it was 0.004 µM; in experiment [2] it was 0.018 µM. Further, in experiment [3], the MIC90 came out at 4.2 µM (≈ 1.52 µg/mL).

For the compound `Clc1ccc2nc(N3CCCCCC3)nc(Nc3cc(C4CC4)[nH]n3)c2c1`, the figures for the Ki in experiment [1] and in experiment [2] were 0.15 µM and over 33 µM, respectively. The compound further returned an MIC90 in experiment [3] of 33 µM (≈ 12.6 µg/mL).

For `Clc1ccc2nc(N3CCNCC3)nc(Nc3cc(C4CC4)[nH]n3)c2c1`, in experiment [1], the Ki amounted to 0.99 µM.

Take `NS(=O)(=O)c1ccc(-c2ncc(F)c(Nc3cc(C4CC4)[nH]n3)n2)s1`: the Ki is under 0.001 µM in experiment [1] and 0.012 µM in experiment [2]. In addition, the MIC90 in experiment [3] is 3.1 µM (≈ 1.18 µg/mL).

On to `N#Cc1ccc(-c2nc(Nc3cc(C4CC4)[nH]n3)c3ccccc3n2)cc1`, for which the Ki amounted to 0.018 µM in experiment [5], 0.14 µM on CDK2/Cyclin A2, 0.046 µM in experiment [1] and 0.07 µM in experiment [6].

As for `Clc1ccc2nc(-c3ccccc3)nc(Nc3cc(C4CC4)[nH]n3)c2c1`, the results for the Ki in experiment [1] and in experiment [2] were 0.06 to 0.069 µM and over 4 µM, respectively.

On to `NC(=O)Cc1ccc(-c2nc(Nc3cc(C4CC4)[nH]n3)c3cc(Cl)ccc3n2)cc1`, for which the Ki in experiment [1] is 0.023 µM; in experiment [2], 1.8 µM.

Turning to `COc1ccc2nc(N3CCCCCC3)nc(Nc3cc(C4CC4)[nH]n3)c2c1`, the Ki in experiment [1] was 0.082 µM; in experiment [2] it was over 33 µM.

For the compound `N#CCc1cccc(-c2nc(Nc3cc(C4CC4)[nH]n3)c3cc(Cl)ccc3n2)c1`, the Ki in experiment [1] is 0.038 µM.

For `N#Cc1cccc(-c2nc(Nc3cc(C4CC4)[nH]n3)c3ccccc3n2)c1`, the Ki in experiment [5] is 0.022 µM; at CDK2/Cyclin A2 it was 0.011 µM; in experiment [1] it was 0.04 µM; in experiment [6], 0.009 µM.

In the case of `Fc1ccc2nc(N3CCCCCC3)nc(Nc3cc(C4CC4)[nH]n3)c2c1`, the Ki in experiment [1] was 0.081 µM; in experiment [2] it was over 33 µM.

Turning to `NS(=O)(=O)c1ccc(-c2ncc(Cl)c(Nc3cc(C4CC4)[nH]n3)n2)s1`, the Ratio Ki in experiment [4] is over 13. Further, the Ki at CDK2/Cyclin A2 is 0.017 µM; in experiment [1], under 0.0013 µM; in experiment [2], 0.009 µM. In experiment [3], this compound displayed an MIC90 of 6.25 µM (≈ 2.48 µg/mL).

Turning to `COC(=O)N1CCCN(c2nc(Nc3cc(C4CC4)[nH]n3)c3cc(Cl)ccc3n2)CC1`, in experiment [1], the Ki turned out to be 0.23 µM.

Take `CC(C)N1CCN(c2nc(Nc3cc(C4CC4)[nH]n3)c3cc(Cl)ccc3n2)CC1`: the Ki in experiment [1] came out at 1.4 µM.

With `N#CCc1ccc(-c2nc(Nc3cc(C4CC4)[nH]n3)c3cc(Cl)ccc3n2)cc1`, the Ki in experiment [1] was 0.005 µM; in experiment [2], over 4 µM.

On to `N#Cc1ccc(-c2nc(Nc3cc(C4CC4)[nH]n3)c3cc(Cl)ccc3n2)cc1`, for which the Ki in experiment [5] is 0.71 µM; at CDK2/Cyclin A2, 0.17 µM; in experiment [1], 0.088 µM; in experiment [2] it was over 4 µM; in experiment [6], 0.19 µM.

`Cc1ccc2nc(N3CCCCCC3)nc(Nc3cc(C4CC4)[nH]n3)c2c1`: the Ki is 0.098 µM in experiment [1] and over 33 µM in experiment [2].

Take `Clc1ccc2nc(N3CCCNCC3)nc(Nc3cc(C4CC4)[nH]n3)c2c1`: in experiment [1], the Ki amounted to 0.96 µM.

`NS(=O)(=O)c1ccc(-c2ncc(Cl)c(Nc3cc(C4CC4)[nH]n3)n2)cc1`: the Ki in experiment [1] is 0.013 µM; in experiment [2], 2.9 µM. Also, the MIC90 in experiment [3] was over 100 µM.

Turning to `NS(=O)(=O)c1ccc(-c2nc(Nc3cc(C4CC4)[nH]n3)c3cc(Cl)ccc3n2)cc1`, the inhibition constant (Ki) was found to be 0.024 µM in experiment [1] and 0.022 µM in experiment [2].

For `N#Cc1cccc(-c2nc(Nc3cc(C4CC4)[nH]n3)c3cc(Cl)ccc3n2)c1`, the Ki in experiment [5] is 0.2 µM; on CDK2/Cyclin A2 it was 0.75 µM; in experiment [1], 0.05 µM; in experiment [2] it was over 4 µM; in experiment [6] it was over 4 µM.

With `Clc1ccc2nc(N3CCCOCC3)nc(Nc3cc(C4CC4)[nH]n3)c2c1`, the Ki in experiment [1] is 0.15 µM.

For `Clc1ccc2nc(NC3CCC3)nc(Nc3cc(C4CC4)[nH]n3)c2c1`, the Ki in experiment [1] is 0.072 µM.

`NS(=O)(=O)c1cccc(-c2nc(Nc3cc(C4CC4)[nH]n3)c3cc(Cl)ccc3n2)c1`: the Ki in experiment [1] was 0.006 µM; in experiment [2] it was under 0.008 µM.

As to `O=C1CCN(c2nc(Nc3cc(C4CC4)[nH]n3)c3cc(Cl)ccc3n2)CCN1`, in experiment [1], the Ki came to 0.19 µM.

Take `CC(=O)N1CCCN(c2nc(Nc3cc(C4CC4)[nH]n3)c3cc(Cl)ccc3n2)CC1`: in experiment [1], the Ki came to 0.15 µM.

`OCc1cccc(-c2nc(Nc3cc(C4CC4)[nH]n3)c3cc(Cl)ccc3n2)c1`: the results for the Ki in experiment [1] and in experiment [2] were 0.023 µM and 2.3 µM, respectively.

On to `NS(=O)(=O)c1cccc(-c2ncc(Cl)c(Nc3cc(C4CC4)[nH]n3)n2)c1`, for which the Ki is 0.017 µM in experiment [1] and under 0.008 µM in experiment [2]. The MIC90 in experiment [3] was determined as 8.3 µM (≈ 3.24 µg/mL).

With `O=C(c1ccccc1)N1CCN(c2nc(Nc3cc(C4CC4)[nH]n3)c3cc(Cl)ccc3n2)CC1`, the Ki in experiment [1] is 0.31 µM.
